The source of these data is patent publication US6008041A, “Bovine dipeptidylaminopeptidase 1” (Eli Lilly and Company, priority 1997, dated 1999).

The test system of experiment [1] is bDAP 1. Kind of experiment: pH dependence of GRpNA cleavage. In kind it is biochemical, bovine. The following applies: below pH 2.5 or above pH 5. The procedure: Four mM GRpNA was prepared in 50 mM acetic acid, 50 mM glycine buffer, pH 5. HCl or NaOH was used to achieve a variety of pHs, from 5.1 to 2.3. To 180 ul of the above pH buffered substrate was added 5 ul bDAP 1 (49 milliunits/ml final). The rate of increase of absorbance at 410 nm was monitored (using a plate-reader) and the rate of increase was compared with the pH of the reaction solution.

Experiment [2] relates to bDAP 1. Kind of experiment: Cleavage of RRBNA / Z-RRBNA (fluorescence). In kind it is biochemical, bovine. The following applies: for ability of the enzyme to cleave the substrate: 0.25 mM substrate, pH 3.5 or pH 5.0, about 15 milliunit/ml enzyme. The method, then:
(§1) About 0.25 mM RRBNA or 0.25 mM Z-RRBNA was prepared in either 100 mM acetic acid, pH 3.5, or 100 mM citrate buffer, pH 5.0. To 2 ml of substrate was added bDAP 1 or bovine DAP-I (about 15 milliunit/ml solution). Rates of cleavage (monitoring fluorescence increase at 410 nm with excitation at 340 nm) were monitored. […] The pH optimum for cleavage of RRBNA was probed by monitoring the rate of RRBNA cleavage using a buffer system consisting of 50 mM acetic acid and 50 mM citrate. Various pHs were achieved using HCl or NaOH and 1.5 ml volumes were made 2.0 with 0.5 ml of a 1 mM stock solution of RRBNA (final concentration of about 0.25 mM). bDAP 1 was added (to about 15 mU/ml) and the rates of cleavage were determined.

A further experiment addresses Bovine DAP-I (Bos taurus, UniProt Q3ZCJ8). Kind of experiment: Cleavage of RRBNA / Z-RRBNA (fluorescence). The following applies: 0.25 mM substrate, pH 3.5 or pH 5.0, about 15 milliunit/ml enzyme. In kind it is biochemical. The procedure:
as §1

Experiment [3] concerns bDAP 1. Kind of experiment: Inhibition of GFpNA cleavage by sulfhydryl modifying agents. The experiment is classed as biochemical, bovine. The following applies: 0.5, 5.0 or 50 mM inhibitor, 15 minutes at room temperature, pH 7; then 4 mM GFpNA pH 3.5, 37° C. The method, then:
(§2) After purification or storage, bDAP 1 enzymatic activity was usually monitored by following the cleavage of the chromogenic substrate GFpNA. Typically the assay was performed by diluting the enzyme at least 11 fold into 1.0 ml of 4 mM GFpNA in 0.05M acetic acid adjusted to pH 3.5. The rate of cleavage of Gly-Phe dipeptide was monitored at 37° C. by measuring the increase in absorbance at 405 nm. One unit of activity leads to a 0.90 OD change per minute under these conditions. Unit/ml estimates can be made assuming an extinction coefficient for free p-nitroanilide (pNA) of 9.9 mM-1 cm-1 at 405 nm.
(§3) The inhibition profile of bDAP 1 toward the substrate GFpNA was compared to that of bovine spleen DAP-I using iodoacetamide and potassium tetrathionate, sulfihydryl modifying agents known to inhibit the activity of bovine spleen DAP-I. Samples of bDAP 1 or bovine spleen DAP-I were incubated for 15 minutes at room temperature in final concentrations of 0, 0.5, 5.0 or 50 mM of either inhibitor at pH 7 in 100 mM Tris buffer. The incubated solutions were then diluted 21-fold with 4 mM GFpNA, pH 3.5. The rate of cleavage was monitored by measuring the increase in absorbance at 405 nm at 37° C. Bovine DAP-I's rate of cleavage of GFpNA was decreased more than 90% by the exposure to 5 mM iodoacetamide and was 95% inhibited by 5 mM potassium tetrathionate.

In a further experiment the target is bovine spleen DAP-I (Bos taurus, UniProt Q3ZCJ8). Described as above. In kind it is biochemical. The following applies: 5 mM inhibitor, 15 minutes at room temperature, pH 7, 100 mM Tris; then diluted 21-fold with 4 mM GFpNA pH 3.5, 37° C., 405 nm; read-out: decrease of rate of cleavage of GFpNA (inhibition). The method, then:
as §2, §3

Structures are written as SMILES. Peptide text beside a SMILES is read from it. * marks the point of attachment. pNA = O=[N+]([O-])c1ccc(N*)cc1; βNA = c1ccc2cc(N*)ccc2c1; Cbz = O=C(OCc1ccccc1)*

The term inhibition denotes the share of the control response that was lost under treatment.

Bovine DAP-I, sequence (Q3ZCJ8 25-134): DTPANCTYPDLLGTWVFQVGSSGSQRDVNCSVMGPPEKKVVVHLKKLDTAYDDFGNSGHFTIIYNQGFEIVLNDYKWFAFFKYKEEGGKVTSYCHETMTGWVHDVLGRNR
Bovine DAP-I, sequence (Q3ZCJ8 231-463): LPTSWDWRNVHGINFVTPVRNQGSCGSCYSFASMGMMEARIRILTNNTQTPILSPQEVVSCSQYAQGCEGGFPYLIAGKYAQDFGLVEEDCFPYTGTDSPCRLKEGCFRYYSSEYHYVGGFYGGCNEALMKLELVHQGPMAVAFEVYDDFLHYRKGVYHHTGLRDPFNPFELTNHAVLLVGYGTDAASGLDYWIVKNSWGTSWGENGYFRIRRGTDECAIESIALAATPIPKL
bovine spleen DAP-I, sequence (Q3ZCJ8 25-134): as the sequence (Q3ZCJ8 25-134) above
bovine spleen DAP-I, sequence (Q3ZCJ8 231-463): as the sequence (Q3ZCJ8 231-463) above

`N=C(N)NCCC[C@H](NC(=O)CN)C(=O)Nc1ccc([N+](=O)[O-])cc1` [GRpNA, Gly-Arg-pNA] (H-Gly-Arg-pNA): the “activity outside the optimum range” value in the experiment with bDAP 1 [1] is reported as “little activity”.

On to `N=C(N)NCCC[C@H](NC(=O)[C@@H](N)CCCNC(=N)N)C(=O)Nc1ccc2ccccc2c1` [RRBNA, Arg-Arg-β-naphthylamide] (H-Arg-Arg-βNA), for which the “ability of the enzyme to cleave the substrate” value is reported as “able to effectively cleave” in the experiment on bDAP 1 [2] and “unable to cleave” at Bovine DAP-I. In addition, the “activity over the pH range probed” value in the experiment on bDAP 1 [2] (pH 3.5 to pH 5.7) is listed as “significant activity”.

For `N=C(N)NCCC[C@H](NC(=O)OCc1ccccc1)C(=O)N[C@@H](CCCNC(=N)N)C(=O)Nc1ccc2ccccc2c1` [Z-RRBNA, benzyloxycarbonyl-RRBNA] (Cbz-Arg-Arg-βNA), the “ability of the enzyme to cleave the substrate” value with bDAP 1 [2] and at Bovine DAP-I was “unable to cleave” throughout.

`NC(=O)CI` [iodoacetamide]: the “inhibition of GFpNA cleavage” value with bDAP 1 [3] is given as “no evidence of significant inhibition”. For the same compound, the inhibition at 5000 µM at bovine spleen DAP-I is > 90%.

Turning to `O=S(=O)([O-])SSS(=O)(=O)[O-].[K+].[K+]` [potassium tetrathionate], the “inhibition of GFpNA cleavage” value in the experiment with bDAP 1 [3] was “no evidence of significant inhibition”.
